Results as given in US6417187B2, “1,2,4-triazole based compounds that can be used as insecticides or acaricides and processes” (Dow AgroSciences LLC, priority 2000, dated 2002).

Experiments:
Assay type in all cases: in vivo
[1] = system: cotton aphid (Aphis gossvpii); assay: Insecticidal test for cotton aphid (squash cotyledon spray)
[2] = system: cabbage looper (Trichoplusia ni); assay: Insecticidal test for cabbage looper (cabbage leaf-disc dip)
[3] = system: Sweetpotato Whitefly (Bemisia tabacia); assay: Insecticidal test for Sweetpotato Whitefly (cotton plant spray)
[4] = system: beet armyworm (Spodoptera exigua); assay: Insecticidal test for beet armyworm (treated lepidopteran diet)
[5] = system: Brown Planthopper (Nilaparvata lugens); assay: Insecticidal test for Brown Planthopper (rice seedling roots in test solution)
[6] = system: tobacco budworm (Heliothis virescens); assay: Insecticidal test for tobacco budworm (cotton cotyledon leaf-disc dip); conditions: 400 ppm, cotton cotyledon leaf-dip, 2nd instar larvae, 5 days
[7] = system: Green Leafhopper (Nephotettix cincticeps); assay: Insecticidal test for Green Leafhopper (rice seedling roots in test solution); conditions: in vivo
[8] = 50 ppm spray on infested squash cotyledons, 3 days, population reduction versus untreated
[9] = 400 ppm, cabbage leaf-dip, 2nd instar larvae, 5 days
[10] = 200 ppm spray on cotton plants, 13 days, reduction of large nymphs
[11] = 400 ppm, treated diet, second-instar larvae, 5 days
[12] = 10 ppm test solution, rice seedling roots, 3rd instar nymphs, mortality at 6 days

| SMILES | CA: activity at 50 ppm against cotton aphid (% Control rating) [1, 8] | CL: activity at 400 ppm against cabbage looper (% Control rating) [2, 9] | WF: activity at 200 ppm against whitefly (% Control rating) [3, 10] | BAW: activity at 400 ppm against beet armyworm (% Control rating) [4, 11] | TBW: activity at 400 ppm against tobacco budworm (% Control rating) [6] | further results |
| --- | --- | --- | --- | --- | --- | --- |
| CCOc1ccc(C#Cc2sc(-c3nc(-c4c(F)cccc4Cl)nn3C)c(Cl)c2Cl)cc1C(F)(F)F [Compound 49] | F (less than 50) | A (90-100) | F (less than 50) | A (90-100) | D (60-69) | BPH: activity at 10 ppm against brown planthopper (% Control rating) [5, 12]: F (less than 50) |
| Cc1cc(F)ccc1C#Cc1sc(-c2nc(-c3c(F)cccc3Cl)nn2C)c(Cl)c1Cl [Compound 52] | D (60-69) | A (90-100) | F (less than 50) | A (90-100) | A (90-100) |  |
| CCCCCCCOc1ccc(C#Cc2sc(-c3nc(-c4c(F)cccc4Cl)nn3C)c(Cl)c2Cl)cc1 [Compound 56] | E (50-59) | A (90-100) | F (less than 50) | A (90-100) | A (90-100) | BPH: activity at 10 ppm against brown planthopper (% Control rating) [5, 12]: F (less than 50) |
| CCOc1ccc(C#Cc2sc(-c3nc(-c4c(F)cccc4Cl)nn3C)c(Cl)c2Cl)cc1F [Compound 60] | F (less than 50) | A (90-100) | E (50-59) | A (90-100) |  |  |
| Cn1nc(-c2c(F)cccc2Cl)nc1-c1sc(C#Cc2cnc(N3CCCCC3)nc2)c(Cl)c1Cl [Compound 64] |  | A (90-100) | F (less than 50) | B (80-89) |  |  |
| CCCc1ccc(C#Cc2sc(-c3nc(-c4c(F)cccc4Cl)nn3CC)c(Cl)c2Cl)cc1 [Compound 81] | F (less than 50) | D (60-69) | F (less than 50) | A (90-100) | F (less than 50) |  |
| CCCCn1nc(-c2c(F)cccc2Cl)nc1-c1sc(C#Cc2ccc(CCC)cc2)c(Cl)c1Cl [Compound 82] | F (less than 50) | A (90-100) | F (less than 50) | D (60-69) |  |  |
| COc1ccc(C#Cc2sc(-c3nc(-c4c(Cl)cncc4Cl)nn3C)c(Cl)c2Cl)cc1 [Compound 87] |  | F (less than 50) |  | F (less than 50) | F (less than 50) |  |
| CCCc1ccc(C#Cc2ccc(-c3nc(-c4c(F)cccc4Cl)nn3C)c(Cl)c2Cl)cc1 [Compound 90] |  |  |  |  |  | CA: activity at 50 ppm against cotton aphid (% Control rating) ([1]; in vivo): B (key: A: 90-100; B: 80-89; C: 70-79; D: 60-69; E: 50-59; F: less than 50; G: inactive); CL: activity at 400 ppm against cabbage looper (% Control rating) ([2]; in vivo): A (key: A: 90-100; B: 80-89; C: 70-79; D: 60-69; E: 50-59; F: less than 50; G: inactive); GLH: activity at 10 ppm against green leafbopper (% Control rating) [7]: F (key: A: 90-100; B: 80-89; C: 70-79; D: 60-69; E: 50-59; F: less than 50; G: inactive); WF: activity at 200 ppm against whitefly (% Control rating) ([3]; in vivo): F (key: A: 90-100; B: 80-89; C: 70-79; D: 60-69; E: 50-59; F: less than 50; G: inactive); BAW: activity at 400 ppm against beet armyworm (% Control rating) ([4]; in vivo): A (key: A: 90-100; B: 80-89; C: 70-79; D: 60-69; E: 50-59; F: less than 50; G: inactive); BPH: activity at 10 ppm against brown planthopper (% Control rating) ([5]; in vivo): E (key: A: 90-100; B: 80-89; C: 70-79; D: 60-69; E: 50-59; F: less than 50; G: inactive) |
| Cn1nc(-c2c(F)cccc2Cl)nc1-c1ccc(C#Cc2ccc(C(F)(F)F)cc2)c(Cl)c1Cl [Compound 94, 1-Methyl-3-(2-Chloro-6-fluorophenyl)-5-(2,3-dichloro-4-(2-(4-trifluoromethyl)phenyl)-ethynyl-phenyl)-1 H[1,2,4]triazole] |  |  |  |  |  | pest or weed control at 50 ppm ([1]; 72 h, 50 ppm spray on infested squash cotyledons, 3 days, population reduction versus untreated, read-out: CA: activity at 50 ppm against cotton aphid (% Control rating)): 80 to 89%; pest or weed control at 400 ppm ([2]; Trichoplusia ni, 120 h, 400 ppm, cabbage leaf-dip, 2nd instar larvae, 5 days, read-out: CL: activity at 400 ppm against cabbage looper (% Control rating)): 90 to 100%; pest or weed control at 200 ppm ([3]; Bemisia, 312 h, 200 ppm spray on cotton plants, 13 days, reduction of large nymphs, read-out: WF: activity at 200 ppm against whitefly (% Control rating)): < 50%; pest or weed control at 400 ppm ([4]; Spodoptera exigua, 120 h, 400 ppm, treated diet, second-instar larvae, 5 days, read-out: BAW: activity at 400 ppm against beet armyworm (% Control rating)): 90 to 100%; pest or weed control at 400 ppm ([6]; Heliothis virescens, 120 h, read-out: TBW: activity at 400 ppm against tobacco budworm (% Control rating)): 60 to 69% |
